Data published in ChEMBL document CHEMBL3407440, “Monocarbonyl analogs of curcumin inhibit growth of antibiotic sensitive and resistant strains of Mycobacterium tuberculosis” (Eur J Med Chem, 2015).

Test system: Mycobacterium tuberculosis
Test: Antituberculosis activity against rifampicin-resistant Mycobacterium tuberculosis H37Rv assessed as growth inhibition after 72 hrs by liquid culture assay
Assay type: functional, organism-based

Compound | IC50 [µM]
CN1C/C(=C\c2ccccn2)C(=O)/C(=C/c2ccccn2)C1 | 7
O=C1/C(=C/c2ccccc2F)CNC/C1=C\c1ccccc1F | 20
